In patent US8007835B2, “Hibiscusanthocyanins for inhibiting cancers” (Aiken Biotechnology International Co., Ltd., priority 2005, dated 2011):

Key:
HL-60 cells = assay: Flow cytometry (PI) cell cycle and quantification of apoptosis; conditions: for effect of inhibitor on HAs-induced apoptosis (cytotoxic action of HAs): PD98059 25 AM, SP600125 20 AM, wortmannin 1 AM, then HAs 3 mg/ml 24 h
Protocol: Flow cytometric analysis of HL-60 cells was performed on the 24-h cultures using a FACScan. The cells of harvest were centrifuged at 1000 rpm for 5 min at room temperature. Thereafter, cells were washed once with Tris-buffered saline (TBS). Then cell suspension was centrifuged again (1000 rpm, 5 min) and resuspended in 70% ethanol. After incubation at −20 for at least 24 h, the cells were resuspended in 1 ml of cell cycle assay buffer [50 μg/ml propidium iodide (PI), 50 μg/ml RNase A, and 0.1% Triton X-100], and it was incubated for 15 min in darkness. Propidium iodide (Sigma) was excited at 488 nm, and fluorescence signal was subjected to logarithmic amplification with PI fluorescence (red) being detected above 600 nm. Cell cycle distribution is presented as the number of cells versus the amount of DNA as indicated by the intensity of fluorescence, and the extent of apoptosis was determined by counting cells of DNA content below the G0/G1 peak.

Fas = assay: Western blot, Fas expression in HL-60 cells; assay type: cell-based, human; conditions: pretreatment with SB203580 (50 AM), then HAs 3 mg/ml 6 h
Protocol: (§1) The medium was removed, and the cells were rinsed with TBS at room temperature. Then 500 μl of cold RIPA buffer (1% NP-40, 50 mM Tris-base, 0.1% SDS, 0.5% deoxycholic acid, and 150 mM NaCl, pH 7.5) with three kinds of proteinase freshly added (10 μg/ml leupeptin, 10 μg/ml PMSF, and 17 μg/ml sodium orthovanadate) were used. After sonication for 1 h at 4° C., a centrifugation (10,000×g) of cell lysate was performed for 10 min at 4° C. The supernatant (50 μg protein) was mixed with an equal volume of electrophoresis sample buffer and boiled for 10 min, which was then subjected to SDS-polyacrylamide gel electrophoresis using a 10% running gel, and electroblotted to nitrocellulose membranes (Millipore, Bedford, Mass., USA). Nonspecific binding was blocked by incubation of the membrane with TBS containing 1% (W/V) nonfat dry milk and 0.1% (v/v) Tween-20 (TBST) for more than 2 h. Membranes were washed with TBST three times for 10 min and incubated with appropriate dilution of primary antibody in TBST for 2 h. Membranes were then extensively washed with TBST before being incubated with appropriate horseradish peroxidase-conjugated secondary antibody for 1 h. After washing the membrane three times, 10 min each in TBST, detection was performed using ECLWestern blotting detection reagents (Amersham, Arlington Heights, Ill., USA).

FasL = assay: Western blot, FasL expression in HL-60 cells; assay type: cell-based, human; conditions: pretreatment with SB203580 (50 AM), then HAs 3 mg/ml 6 h
Protocol: as §1

c-Jun = assay: Western blot, phosphorylated c-Jun in HL-60 cells; assay type: cell-based, human; conditions: pretreatment with SB203580 (50 AM), then HAs 3 mg/ml 6 h
Protocol: as §1

Oc1c2ccccc2c2c3c(cccc13)N=N2 [SP600125, 1,9-pyrazoloanthrone]
effect of inhibitor on HAs-induced apoptosis (cytotoxic action of HAs) (HL-60 cells): did not reduce the cytotoxic action of HAs

COC[C@H]1OC(=O)c2coc3c2[C@@]1(C)C1=C(C3=O)[C@@H]2CCC(=O)[C@@]2(C)C[C@H]1OC(C)=O [wortmannin]
effect of inhibitor on HAs-induced apoptosis (cytotoxic action of HAs) (HL-60 cells): did not reduce the cytotoxic action of HAs

C[S+]([O-])c1ccc(-c2nc(-c3ccc(F)cc3)c(-c3ccncc3)[nH]2)cc1 (stereo not shown) [SB203580, 4-[4-fluorophenyl]-2-[4-methylsulfinylphenyl]-5-[4-pyridyl]-1H-imidazole]
Fas expression (Fas): down-regulated
reduction in the sub-G1 phase compared to HAs alone (HL-60 cells; 50 AM SB203580 followed by 24-h exposure to HAs (3 mg/ml)): ~50%
sub-G1 phase (HL-60 cells; 50 AM SB203580 preincubation followed by 24-h exposure to HAs (3 mg/ml)): 27.39%
FasL expression (FasL): down-regulated
c-Jun (phospho-c-Jun) expression (c-Jun): down-regulated
